Assay results reported in patent US6626844B1, “Method and composition for inhibition of nitric oxide production in the oral cavity” (Aerocrine AB, priority 1998, dated 2003).

How the values were obtained:
exhaled NO output = test: Mouthwash trials: NO output in exhaled air; type: in vivo, humans; conditions: for effect on NO output: 30 s mouthwash with 25 ml
Method: Experimental protocol: Exhaled NO was measured at an exhalation flow rate of 100 ml/s and the NO output was calculated. Measurements were repeated 3 times at each time point and the median value was used. After baseline measurements, the test subjects (n=3) were asked to rinse their mouth with 25 ml of different solutions during 30 s whereafter the solution was spat out All solutions were made up in distilled water. Exhaled NO measurements were repeated directly after, and 5, 15 and 30 min after the mouthwash procedure. Results are given as mean relative changes in NO output compared to baseline measurements.

NO in exhaled air [1] = test: Mouthwashes and NO in exhaled air; type: in vivo, humans
Excerpt: (§1) Ten healthy non-smoking subjects, age 23-43, were included in the study. The NO measurements were made with a chemiluminescense technique according to the recommendations recently described in the ERS Task Force Report (Kharitonov et al., 1997). The values of NO concentration were then registered in a computer software program together with the values of flow and pressure, measured with a pneunotachygraf, and calculations of these parameters were presented on a screen.
The following describes briefly the “single-breath” method for orally exhaled air. Compressed NO free air was continuously flowing into a non-diffusing gas collection bag, 100 l capacity (Hans Rudolph Inc.), at a rate of 2-3 l/min. The bag was connected via a tube to a Y-piece with a one-way valve, which in turn was adapted to a mouthpiece. Before the measurements the subjects inhaled NO free air through the mouthpiece and were asked to hold their breath for 10 s while they put their tongue into the mouthpiece's opening, in order to prevent NO from diffusing out. Then the subjects exhaled through the mouthpiece at a flow rate of about 0.15 l/s against a resistance of 50 cmH2O/l/s (Hans Rudolph Inc.), giving rise to an oral pressure of 8-10 cmH2O, for a period of 20 s. The exhaled air went out through the other one-way valve in the Y-piece leading on to a linear pneumotachymeter (Hans Rudolph Inc.), where the values of flow and pressure were registered and transformed into digital signals recorded by a computer software program (Medical Breath Analyser™ from Aerocrine AB, Sweden). The recordings were instantly visualized on a computer screen, which enabled the subjects to maintain a certain flow (i.e. 0.15 l/s), adjusting the exhalation to the flow curve. A fraction of the exhaled air was aspirated into the NO analyzer (Eco Physics Inc., Model CLD 700 AL) at a flow rate of approximately 0.5 l/min, through a 110-cm narrow-bore and Teflon®-coated tube connected to the mouthpiece. The detected NO levels were passed on to the computer and integrated with the figures for flow and pressure for calculation of NO release rate (pmol/s) and NO amount (pmol). NO release was calculated by the formula: NO-conc×Q=pmol/s×l/s=pmol/s. The conversion of NO-conc in ppb to a molecular unit goes via the fact that the volume of 1 mol of NO takes up 24.445 liters at normal temperature and pressure. Given this 1 ppb NO equals 40.908 pM. At the flow of 0.15 l/s and e.g. a NO-conc of 10 ppb the NO release equals 67 pmol/s. The use of NO-release, instead of NO-concentration as a registration unit, has the advantage of taking the flow rate into account, whereas in the use of NO-concentration the exhalation flow is not taken into consideration. In addition to the curves for flow and pressure two curves for NO concentration and NO release were plotted on the screen and calculated mean values were presented for the last 40% of the breath, representing the plateau phase. NO amount was also presented for the first 40%, representing the area under curve for the peak.
In order to further manipulate with the conditions in the oral cavity and perhaps influence the formation of NO from salivary nitrite different mouthwashes were introduced in the study. On a separate day, from that of the nitrate load, the ten subjects volunteered to have their NO in exhaled air measured after rinsing their mouth with distilled water, sodium bicarbonate-, ascorbic acid- and, nitrite solutions in named order. Further, a mouthwash with Chlorhexidine acetate 0.2% was included in the study.
In the first series of mouthwashes 5 baseline measurements with a breathhold were performed to obtain a reference value. In fact, all measurements in this part of the experiment were done with a breathhold, for the reasons described above. […]

[2] = test system: NO synthesis in the oral cavity; conditions: prior treatment with mouthwash, healthy volunteers; cited from earlier work
NO in exhaled air [3] = test: Mouthwash after nitrate loading, NO in exhaled air; type: in vivo, humans
Method: The experiment was terminated with a mouthwash of sodium bicarbonate after 180 min with a following single-breath measurements. This to examine whether the mouthwash's possible reduction of the NO formation would be enhanced at a stage when one would expect high levels of NO. For mouthwash procedure see below.
In addition to the mouthwash with sodium bicarbonate after […], the effects of chlorhexidine was studied at a stage when one could expect larger amounts of nitrite in the saliva. This was also done in a separate experiment, on a separate day, not to interfere with the results of the original nitrate loading study. Five single-breaths with a breathhold were carried out to obtain a reliable baseline. Thereafter a load of 400 mg potassium nitrate was ingested, as described above. However, to facilitate this experiment for the subjects there was no demand for fasting. Five additional single-breaths were performed 90 min later—to get representative mean values of NO after nitrate ingestion. The subjects then rinsed their mouths with 2.5 cl chlorhexidine acetate 0.2% for 30 s and performed a NO measurement immediately afterwards. The single-breath procedure was also repeated 2, 5, 10, 20 and 30 min after the mouthwash.

NO formation from saliva = test system: NO formation from saliva
Method: On another occasion the subjects were asked to produce 10 ml of saliva, without time restriction, by again chewing on a piece of Teflon®-plastic. Half of this, i.e. 5 ml, was put in a 50 ml plastic syringe with an addition of 0.5 ml distilled water and closed with a three-way stopcock after filling it up with 50 ml of room air. The remaining 5 ml were mixed with 0.5 ml 20 mM nitrite solution (resulting in a salivary nitrite concentration of a […]) and put in another syringe filled with 50 ml of room air. The two syringes were put in a warming cupboard with an approximate temperature of 40° C. for 15 min. The air head space from both syringes was then collected in two separate empty 50 ml syringes and it's NO concentration was determined by the NO chemiluminescence analyser.

NO in exhaled air [4] = test: Nitrate loading: NO in orally exhaled air, single-breath chemiluminescence; type: in vivo, humans
Excerpt: as §1
The following describes briefly the “single-breath” method for orally exhaled air. Compressed NO free air was continuously flowing into a non-diffusing gas collection bag, 100 l capacity (Hans Rudolph Inc.), at a rate of 2-3 l/min. The bag was connected via a tube to a Y-piece with a one-way valve, which in turn was adapted to a mouthpiece. Before the measurements the subjects inhaled NO free air through the mouthpiece and were asked to hold their breath for 10 s while they put their tongue into the mouthpiece's opening, in order to prevent NO from diffusing out. Then the subjects exhaled through the mouthpiece at a flow rate of about 0.15 l/s against a resistance of 50 cmH2O/l/s (Hans Rudolph Inc.), giving rise to an oral pressure of 8-10 cmH2O, for a period of 20 s. The exhaled air went out through the other one-way valve in the Y-piece leading on to a linear pneumotachymeter (Hans Rudolph Inc.), where the values of flow and pressure were registered and transformed into digital signals recorded by a computer software program (Medical Breath Analyser™ from Aerocrine AB, Sweden). The recordings were instantly visualized on a computer screen, which enabled the subjects to maintain a certain flow (i.e. 0.15 l/s), adjusting the exhalation to the flow curve. A fraction of the exhaled air was aspirated into the NO analyzer (Eco Physics Inc., Model CLD 700 AL) at a flow rate of approximately 0.5 l/min, through a 110-cm narrow-bore and Teflon®-coated tube connected to the mouthpiece. The detected NO levels were passed on to the computer and integrated with the figures for flow and pressure for calculation of NO release rate (pmol/s) and NO amount (pmol). NO release was calculated by the formula: NO-conc×Q=pmol/s×l/s=pmol/s. The conversion of NO-conc in ppb to a molecular unit goes via the fact that the volume of 1 mol of NO takes up 24.445 liters at normal temperature and pressure. Given this 1 ppb NO equals 40.908 pM. At the flow of 0.15 l/s and e.g. a NO-conc of 10 ppb the NO release equals 67 pmol/s. The use of NO-release, instead of NO-concentration as a registration unit, has the advantage of taking the flow rate into account, whereas in the use of NO-concentration the exhalation flow is not taken into consideration. In addition to the curves for flow and pressure two curves for NO concentration and NO release were plotted on the screen and calculated mean values were presented for the last 40% of the breath, representing the plateau phase. NO amount was also presented for the first 40%, representing the area under curve for the peak. […]
Changes in NO levels were analysed by using non-parametric ANOVA for paired and repeated measures with subsequent Dunn's post-test as offered by InStat from GraphPad Software. Nitrate and nitrite concentrations in the saliva were analysed by the non-parametric method of […] for paired measurements, using the same software. […]

nasal NO = test: Nasal NO after nitrate loading; type: in vivo, humans; conditions: 5-180 min after nitrate loading
Excerpt: To look into nasal NO levels a somewhat new approach taking advantage of the set-up for measurements in exhaled air was used. A “nose-olive”, tried out individually for a tight fitting to the subject's nostrils, was attached to the Teflon®-coated tube leading in to the NO-analyzer. The olive was then placed in one of the nostrils letting the NO analyzer aspirate air from the nasal cavity. Even though the subjects kept breathing through their mouth the NO concentrations oscillated with every breath, pointing to a leakage of NO from the nose to the oral cavity. The subjects were asked to take a deep breath and exhale through the mouthpiece against the same resistance as above, while the olive still was sampling from the nose. The oscillations of the NO values then ceased and the concentrations increased to a stable plateau, visualized on the computer screen. The time for exhalation was set to 20 s. which was well sufficient to reach a plateau. A mean value of the NO concentration during the last 40% of the exhalation, i.e. 8 s. was presented by the computer program and included in the protocol. […]
An amount of 400 mg potassium nitrate was dissolved in a cup of distilled water and then swallowed down. […] NO in exhaled air was measured first without and then with a breathhold, as mentioned above.

[5] = immediately after 30 s mouthwash (3 cl), with breathhold, baseline 41.1±3.3, n=10
[6] = immediately after 30 s mouthwash, baseline 497.6±52.7
[7] = 0 min after 30 s mouthwash with 25 ml, n=3
[8] = 120 min after nitrate ingestion, after breathhold

OO [1% H2O2, hydrogen peroxide]
effect on NO output (exhaled NO output): increased NO output

O=S(=O)([O-])[O-].[Fe+2] [100 mg FeSO4]
effect on NO output (exhaled NO output): increased NO output

O=C1O[C@H]([C@@H](O)CO)C(O)=C1O [ascorbic acid]
plateau NO release (NO in exhaled air [1]; [5]): 155.0 ± 27.6 pmol/s
peak level of NO (NO in exhaled air [1]; [6]): 2482.5±601.9 ppb
increase of peak concentration (NO in exhaled air [1]; immediately after mouthwash): around 400%
increase of plateau level compared to baseline (NO in exhaled air [1]; immediately after mouthwash): ~300%
effect on NO production [2]: marked elevation in NO production

CC(=O)O.CC(=O)O.NC(=N\CCCCCC/N=C(N)/N=C(\N)Nc1ccc(Cl)cc1)/N=C(\N)Nc1ccc(Cl)cc1 [chlorhexidine acetate]
immediate decrease of NO compared to baseline (NO in exhaled air [1]; 0.2% mouthwash, control (fasting) situation): ~30%
NO release (NO in exhaled air [1]; immediately after 30 s mouthwash with 2.5 cl 0.2%, pH 8.0, separate day, baseline 33.9±2.9): 24.1 ± 3.5 pmol/s
NO release (NO in exhaled air [3]; immediately after 0.2% mouthwash (2.5 cl, 30 s) given 90 min after nitrate load, before mouthwash 60.8±6.4): 33.9 ± 4.3 pmol/s
immediate reduction of NO levels (NO in exhaled air [3]; mouthwash 90 min after nitrate load): ~50%
mean relative change in NO output compared to baseline (exhaled NO output; [7]): −14% at
mean relative change in NO output compared to baseline (exhaled NO output; 5 min after mouthwash): −11% at
mean relative change in NO output compared to baseline (exhaled NO output; 15 min after mouthwash): −5% at
mean relative change in NO output compared to baseline (exhaled NO output; 30 min after mouthwash): −10% at

O=N[O-].[K+] [nitrite solution, potassium nitrite]
NO concentration in head space of incubated saliva (NO formation from saliva; 5 ml saliva + 0.5 ml 20 mM nitrite, about 40° C., 15 min, pure saliva 59.5±29.8): 396.4±138.2 ppb
increase of NO formation versus pure saliva (NO formation from saliva; nitrite added to saliva): more than 500%
increase of plateau NO release compared to baseline (NO in exhaled air [1]; 0.1 M nitrite solution): > 40 fold
peak level of NO (NO in exhaled air [1]; 60 s after 30 s mouthwash): 2812.1±622.1 ppb
plateau NO release (NO in exhaled air [1]; 60 s after 30 s mouthwash): 225.2 ± 44.0 pmol/s
plateau NO release (NO in exhaled air [1]; dose-response rinse, 1 mM nitrite solution, one single-breath after rinsing): 55.0 ± 8.7 pmol/s
plateau NO release (NO in exhaled air [1]; dose-response rinse, 0.1 M nitrite solution): 1791.8 ± 404.8 pmol/s

O=[N+]([O-])[O-].[K+] [potassium nitrate]
NO release during the plateau (NO in exhaled air [4]; 120 min after ingestion of 400 mg potassium nitrate, without breathhold, baseline 31.2±3.0, mean±SEM n=10): 77.0 ± 15.2 pmol/s
increase of peak NO amount compared to baseline (NO in exhaled air [4]; [8]): 130%
peak level: total amount NO released during the first 40% of the exhalation (NO in exhaled air [4]; [8]): 819 ± 160.8 pmol
NO release during the plateau (NO in exhaled air [4]; 120 min after nitrate ingestion, with breathhold, baseline 31.9±4.5): 70.8 ± 11.6 pmol/s
increase of plateau NO release compared to baseline (NO in exhaled air [4]; 120 min after nitrate ingestion, without breathhold): ~150%
changes in nasal NO production (nasal NO): no significant changes in NO production
NO release (NO in exhaled air [3]; 90 min after 400 mg potassium nitrate, not fasting, control 34.8±4.2): 60.8 ± 6.4 pmol/s
increase of NO release compared to control levels (NO in exhaled air [3]; 90 min after nitrate load): ~2 fold

O=C([O-])O.[Na+] [sodium bicarbonate]
plateau NO release (NO in exhaled air [1]; 120 s after 30 s mouthwash): 34.4 ± 3.6 pmol/s
plateau NO release (NO in exhaled air [1]; [5]): 31.3 ± 3.1 pmol/s
peak level of NO (NO in exhaled air [1]; [6]): 309.2±43.0 ppb
reduction of plateau (NO in exhaled air [3]; mouthwash 180 min after nitrate load): more than 30%
plateau NO release (NO in exhaled air [3]; mouthwash 180 min after nitrate load, before mouthwash 52.7±4.8): 36.2 ± 4.2 pmol/s
mean relative change in NO output compared to baseline (exhaled NO output; [7]): −7% at
mean relative change in NO output compared to baseline (exhaled NO output; 5 min after mouthwash): −5% at
mean relative change in NO output compared to baseline (exhaled NO output; 15 min after mouthwash): −8% at
mean relative change in NO output compared to baseline (exhaled NO output; 30 min after mouthwash): −8% at

polyoxyethylene sorbitan monolaurate [1% Tween-20 ®]
mean relative change in NO output compared to baseline (exhaled NO output; [7]): −9% at
mean relative change in NO output compared to baseline (exhaled NO output; 5 min after mouthwash): −6% at
